Biological target: T1, human β-Secretase (Homo sapiens, UniProt P56817)
T1 construct: The soluble part of the human β-Secretase (AA 1-AA 460) was cloned; made in house
Experiment: TR-FRET assay
Type: biochemical
Conditions: soluble human β-Secretase (sBACE-Fc), substrate (Europium)[…](Qsy7) 100 nM, pH 4.5
Method: The enzyme used in the IGEN Cleavage-, Fluorescent-, TR-FRET- and BiaCore assays is described as follows: The soluble part of the human β-Secretase (AA 1-AA 460) was cloned into the […]-Fc10-1-IRES-GFP-neoK mammalian expression vector. The gene was fused to the Fc domain of IgG1 (affinity tag) and stably cloned into HEK 293 cells. Purified sBACE-Fc is stored in Tris buffer, pH 9.2 and has a purity of 95%. TR-FRET Assay Enzyme was diluted to 6 μg/mL and the substrate ([…]7) to 200 nM in reaction buffer (NaAcetate, chaps, triton x-100, EDTA pH 4.5). Compounds were diluted to the desired concentration in dimethyl sulfoxide (final dimethyl sulfoxide concentration in assay is 5%). […] Enzyme (9 μL) and 1 μL of compound in dimethyl sulfoxide was added to the plate, mixed and pre-incubated for 10 min. Substrate (10 μL) was added and the reaction proceeded in the dark for 15 min at RT. The reaction was stopped with the addition of 7 μL NaAcetate, pH 9.

T1 sequence (P56817 22-460): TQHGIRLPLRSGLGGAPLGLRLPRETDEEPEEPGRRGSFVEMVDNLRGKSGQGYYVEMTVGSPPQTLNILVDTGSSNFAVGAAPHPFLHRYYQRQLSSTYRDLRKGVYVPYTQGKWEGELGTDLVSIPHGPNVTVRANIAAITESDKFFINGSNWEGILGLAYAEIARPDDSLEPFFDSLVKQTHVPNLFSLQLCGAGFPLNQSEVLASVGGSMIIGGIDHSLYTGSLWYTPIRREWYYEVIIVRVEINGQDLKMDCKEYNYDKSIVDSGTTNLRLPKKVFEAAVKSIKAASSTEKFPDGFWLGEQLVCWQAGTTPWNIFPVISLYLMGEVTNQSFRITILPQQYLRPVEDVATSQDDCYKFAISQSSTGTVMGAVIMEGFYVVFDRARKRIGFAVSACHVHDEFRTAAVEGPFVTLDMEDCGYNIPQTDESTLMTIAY

Row | IC50 [nM] | SMILES
1 | 253 | COc1ccc(C2(c3cccc(-c4cncnc4)c3)N=C(N)N3CC(S(C)(=O)=O)CN=C32)cc1 (mixture of isomers) [Example 28, 8-(4-Methoxyphenyl)-3-(methylsulfonyl)-8-(3-pyrimidin-5-ylphenyl)-2,3,4,8-tetrahydroimidazol[1,5-a]pyrimidin-6-amine 2.0 acetate]
2 | 119 | COc1ccc(C2(c3cccc(-c4cncnc4)c3)N=C(N)N3CC(O)CN=C32)cc1 (mixture of isomers) [Example 30, 6-Amino-8-(4-methoxyphenyl)-8-(3-pyrimidin-5-ylphenyl)-2,3,4,8-tetrahydroimidazo[1,5-a]pyrimidin-3-ol]
3 | 571 | COc1ccc(C2(c3cccc(-c4cncnc4)c3)N=C(N)N3CC(OC)CN=C32)cc1 (mixture of isomers) [Example 32, 3-Methoxy-8-(4-methoxyphenyl)-8-(3-pyrimidin-5-ylphenyl)-2,3,4,8-tetrahydroimidazo[1,5-a]pyrimidin-6-amine]
4 | 59 | COc1ccc(C2(c3cccc(-c4cncnc4)c3)N=C(N)N3CC(F)CN=C32)cc1 (mixture of isomers) [Example 50, 3-Fluoro-8-(4-methoxyphenyl)-8-(3-pyrimidin-5-ylphenyl)-2,3,4,8-tetrahydroimidazo[1,5-a]pyrimidin-6-amine 4.0 acetate]
5 | 76 | COc1ccc(C2(c3cccc(-c4cccnc4)c3)N=C(N)N3CC(F)(F)CN=C32)cc1 (centres unmarked) [Example 40, 3,3-Difluoro-8-(4-methoxyphenyl)-8-(3-pyridin-3-ylphenyl)-2,3,4,8-tetrahydroimidazo[1,5-a]pyrimidin-6-amine 0.75 acetate]
6 | 30 | COc1ccc(C2(c3cccc(-c4cncc(OC)c4)c3)N=C(N)N3CC(F)(F)CN=C32)cc1 (centres unmarked) [Example 41, 3,3-Difluoro-8-(4-methoxyphenal)-8-[3-(5-methoxypyridin-3-yl)phenyl]-2,3,4,8-tetrahydroimidazo[1,5-a]pyrimidin-6-amine 0.75 acetate]
7 | 29 | COc1ccc(C2(c3cccc(-c4cccnc4F)c3)N=C(N)N3CC(F)(F)CN=C32)cc1 (centres unmarked) [Example 42, 3,3-Difluoro-8-[3-(2-fluoropyridin-3-yl)phenyl]-8-(4-methoxyphenyl)-2,3,48-tetrahydroimidazo[1,5-a]pyrimidin-6-amine 0.75 acetate]
8 | 41 | COc1cncc(-c2cccc(C3(c4ccncc4)N=C(N)N4CC(F)(F)CN=C43)c2)c1 (centres unmarked) [Example 43, 3,3-Difluoro-8-[3-(5-methoxypyridin-3-yl)phenyl]-8-pyridin-4-yl-2,3,4,8-tetrahydroimidazo[1,5-a]pyrimidin-6-amine acetate]
9 | 120 | NC1=NC(c2ccncc2)(c2cccc(-c3cccnc3F)c2)C2=NCC(F)(F)CN12 (centres unmarked) [Example 44, 3,3-Difluoro-8-[3-(2-fluoropyridin-3-yl)phenyl]-8-pyridin-4-yl-2,3,4,8-tetrahydroimidazo[1,5-a]pyrimidin-6-amine 0.75 acetate]
10 | 59 | NC1=NC(c2ccncc2)(c2cccc(-c3cncc(F)c3)c2)C2=NCC(F)(F)CN12 (centres unmarked) [Example 47, 3,3-Difluoro-8-[3-(5-fluoropyridin-3-yl)phenyl]-8-pyridin-4-yl-2,3,4,8-tetrahydroimidazo[1,5-a]pyrimidin-6-amine acetate]
11 | 2300 | CN(C)C(=O)c1cccc(C2(c3cccc(-c4cccnc4F)c3)N=C(N)N3CC(F)(F)CN=C32)c1 (centres unmarked) [Example 69, 3-{6-Amino-3,3-difluoro-8-[3-(2-fluoropyridin-3-yl)phenyl]-2,3,4,8-tetrahydroimidazo[1,5-a]pyrimidin-8-yl}-N,N-dimethylbenzamide]
12 | 2100 | CN(C)C(=O)c1ccc(C2(c3cccc(-c4cccnc4F)c3)N=C(N)N3CC(F)(F)CN=C32)cc1 (centres unmarked) [Example 70, 4-{6-Amino-3,3-difluoro-8-[3-(2-fluoropyridin-3-yl)phenyl]-2,3,4,8-tetrahydroimidazo[1,5-a]pyrimidin-8-yl}-N,N-dimethylbenzamide]
13 | 41 | COc1ccc(C2(c3ccc(F)c(-c4cccnc4F)c3)N=C(N)N3CC(F)(F)CN=C32)cc1C (centres unmarked) [Example 87, 3,3-Difluoro-8-(4-fluoro-3-(2-fluoropyridin-3-yl)phenyl)-8-(4-methoxy-3-methylphenyl)-2,3,4,8-tetrahydroimidazo[1,5-a]pyrimidin-6-amine acetate]
14 | 92 | COc1ccc(C2(c3ccc(F)c(-c4cncnc4)c3)N=C(N)N3CC(F)(F)CN=C32)cc1C (centres unmarked) [Example 88, 3,3-Difluoro-8-(4-fluoro-3-(pyrimidin-5-yl)phenyl)-8-(4-methoxy-3-methylphenyl)-2,3,48-tetrahydroimidazo[1,5-a]pyrimidin-6-amine acetate]
